The values below come from patent publication US10124004B2, “Pyrido[3,4-d]pyrimidine derivative and pharmaceutically acceptable salt thereof” (Teijin Pharma Limited, priority 2015, dated 2018).

In one experiment the target is T1, CDK4/cyclin D3 (Homo sapiens, UniProt P11802).
T1 construct: purchased Carna Biosciences, Inc. QS S Assist CDK4/Cyclin D3_FP Kit
In words: Human CDK4/cyclin D3 inhibitory activity (QS S Assist CDK4/Cyclin D3_FP Kit, IMAP fluorescence polarization). In kind it is biochemical. The note with it: Human CDK4/cyclin D3 inhibitory activity; read-out: CDK4 Activity symbol. A digest of the protocol:
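IMAP fluorescence polarization kit: CDK4/cyclin D3 at 12.5-25 ng/well with kit ATP/substrate/metal mix in 20 mM HEPES pH 7.4, 0.01% Tween20, 2 mM DTT, 45 min at room temperature. FP read at 485/535 nm after 30 min binding; IC50 from dose-response fit of percent inhibition versus enzyme and no-enzyme controls.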

For the next experiment, the target named is T2, CDK2/cyclin A2 (Homo sapiens, UniProt P24941).
T2 construct: purchased Carna Biosciences, Inc. QS S Assist CDK2/Cyclin A2_FP Kit
In words: Human CDK2/cyclin A2 inhibitory activity (QS S Assist CDK2/Cyclin A2_FP Kit, IMAP fluorescence polarization). The class given is biochemical. To be noted: Human CDK2/cyclin A2 inhibitory activity; read-out: CDK2 Activity symbol. The procedure, abridged:
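Kinase activity read as fluorescence polarization (485/535 nm) after phosphorylated fluorescent substrate binds IMAP reagent (30 min, RT, dark). Enzyme (2.5 ng/well) reacted 60 min at RT with ATP/substrate/metal in HEPES pH 7.4 buffer with Tween 20 and DTT; no-enzyme wells define 0% activity; IC50 by curve fit.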

T1 sequence (P11802 whole entry): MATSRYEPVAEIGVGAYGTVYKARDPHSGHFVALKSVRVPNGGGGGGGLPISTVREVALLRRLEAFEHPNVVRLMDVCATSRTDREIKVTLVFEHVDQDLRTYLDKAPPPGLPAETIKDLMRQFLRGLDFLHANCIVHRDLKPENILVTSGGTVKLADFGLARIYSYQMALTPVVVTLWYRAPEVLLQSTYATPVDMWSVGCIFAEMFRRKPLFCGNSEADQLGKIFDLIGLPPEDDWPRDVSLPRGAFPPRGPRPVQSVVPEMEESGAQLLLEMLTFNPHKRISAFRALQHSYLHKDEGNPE
T1 sequence (P30281 whole entry partner): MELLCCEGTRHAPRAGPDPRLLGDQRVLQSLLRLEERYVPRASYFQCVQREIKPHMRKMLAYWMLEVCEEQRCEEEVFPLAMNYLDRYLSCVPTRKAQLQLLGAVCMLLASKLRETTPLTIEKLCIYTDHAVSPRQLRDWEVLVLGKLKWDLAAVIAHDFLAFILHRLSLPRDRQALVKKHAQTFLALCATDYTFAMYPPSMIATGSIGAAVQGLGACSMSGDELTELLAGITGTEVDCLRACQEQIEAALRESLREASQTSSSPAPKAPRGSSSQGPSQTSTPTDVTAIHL

For the molecule `CC(C)Nc1nc(C(F)F)cc2cnc(Nc3ccc(CN(C4CCOC4)S(C)(=O)=O)cn3)nc12` (stereo not drawn) [Compound 162], the IC50 at CDK4/cyclin D3 was 10 to 100 nM; at CDK2/cyclin A2, at least 100 nM.
Take `CC(C)Nc1nc(C(F)F)cc2cnc(Nc3ncc(N4CCNCC4)cn3)nc12` [Compound 163]: the IC50 is below 10 nM on CDK4/cyclin D3 and at least 100 nM on CDK2/cyclin A2.
For the molecule `CC(C)Nc1nc(C(F)F)cc2cnc(Nc3ccc(CCCO)cn3)nc12` [Compound 164], the IC50 at CDK4/cyclin D3 was below 10 nM; on CDK2/cyclin A2, 10 to 100 nM.
Turning to `CC(C)Nc1nc(C(F)F)cc2cnc(Nc3ccc(CN4CCCC4=O)cn3)nc12` [Compound 165], the IC50 is below 10 nM on CDK4/cyclin D3 and at least 100 nM at CDK2/cyclin A2.
With `CC(C)Nc1nc(C(F)F)cc2cnc(Nc3ccc(CN4CCOCC4=O)cn3)nc12` [Compound 166], the IC50 was below 10 nM at CDK4/cyclin D3 and 10 to 100 nM at CDK2/cyclin A2.
Turning to `CC(C)Nc1nc(C(F)F)cc2cnc(Nc3ccc(CCCN4CCCC4=O)cn3)nc12` [Compound 167], the values for the IC50 at CDK4/cyclin D3 and at CDK2/cyclin A2 were below 10 nM and at least 100 nM, respectively.
For the molecule `CC(C)Nc1nc(C(F)F)cc2cnc(Nc3ccc(CCCN4CCOCC4=O)cn3)nc12` [Compound 168], the IC50 at CDK4/cyclin D3 was below 10 nM; at CDK2/cyclin A2 it was 10 to 100 nM.
For `CC(C)Nc1nc(C(F)F)cc2cnc(Nc3ccc(C(=O)N4CCOCC4)cn3)nc12` [Compound 169], in that order: below 10 nM and 10 to 100 nM.
The corresponding values for `CC(C)Nc1nc(C(F)F)cc2cnc(Nc3ccc(CCCN4CCCCS4(=O)=O)cn3)nc12` [Compound 170] are below 10 nM and at least 100 nM.
As to `CC(C)Nc1nc(C(F)F)cc2cnc(Nc3ccc(N4CCC(O)CC4)nn3)nc12` [Compound 171], the values for the IC50 at CDK4/cyclin D3 and on CDK2/cyclin A2 were below 10 nM and 10 to 100 nM, respectively.
`CO[C@H](C)c1cc2cnc(Nc3ccc(CN4CCOCC4)cn3)nc2c(NC(C)C)n1` [Compound 172]: the IC50 at CDK4/cyclin D3 is 10 to 100 nM; at CDK2/cyclin A2, at least 100 nM.
As to `CC(C)Nc1nc(C(F)F)cc2cnc(Nc3ccc(CN4CCOCCC4=O)cn3)nc12` [Compound 173], the IC50 is below 10 nM at CDK4/cyclin D3 and 10 to 100 nM on CDK2/cyclin A2.
The corresponding values for `CC(C)Nc1nc(C(F)F)cc2cnc(Nc3ccc(CN4CCNC(C)(C)C4)cn3)nc12` [Compound 174] are below 10 nM and 10 to 100 nM.
For the molecule `CC(C)Nc1nc(C(F)F)cc2cnc(Nc3ccc(CN4CCNC5(CC5)C4)cn3)nc12` [Compound 175], the IC50 at CDK4/cyclin D3 was below 10 nM; on CDK2/cyclin A2, 10 to 100 nM.
Consider `CO[C@H](C)c1cc2cnc(Nc3ccc(CN4CCNC(=O)C4)cn3)nc2c(NC(C)C)n1` [Compound 176], for which the IC50 was 10 to 100 nM at CDK4/cyclin D3 and at least 100 nM on CDK2/cyclin A2.
For `CC(C)Nc1nc(C(F)F)cc2cnc(Nc3ccc(CN4CCCCC4)cn3)nc12` [Compound 177], in that order: below 10 nM and 10 to 100 nM.
For the molecule `CC(=O)N1CCC(c2ccc(Nc3ncc4cc(C(F)F)nc(NC(C)C)c4n3)nc2)CC1` [Compound 178], the results for the IC50 on CDK4/cyclin D3 and at CDK2/cyclin A2 were below 10 nM and at least 100 nM, respectively.
For `CC(C)Nc1nc(C(F)F)cc2cnc(Nc3ccc(C4CCN(S(C)(=O)=O)CC4)cn3)nc12` [Compound 179], in that order: 10 to 100 nM and at least 100 nM.
For `COCC(C)(C)Nc1nc([C@@H](C)O)cc2cnc(Nc3ccc(CN4CCOCC4)cn3)nc12` [Compound 180], in that order: 10 to 100 nM and at least 100 nM.
For `CC(C)Nc1nc(C(F)F)cc2cnc(Nc3ccc(N4CCNC(C)(C)C4)cn3)nc12` [Compound 181], in that order: below 10 nM and 10 to 100 nM.
For `COCC(C)(C)Nc1nc([C@@H](C)O)cc2cnc(Nc3ccc(CN4CCNC(=O)C4)cn3)nc12` [Compound 182], the IC50 on CDK4/cyclin D3 is 10 to 100 nM; on CDK2/cyclin A2, at least 100 nM.
The corresponding values for `CC(C)Nc1nc(C(F)F)cc2cnc(Nc3ccc(N4C[C@H](O)CC4=O)cn3)nc12` [Compound 183] are below 10 nM and 10 to 100 nM.
Turning to `CC(C)Nc1nc(C(F)F)cc2cnc(Nc3ccc(N4C[C@@H](O)CC4=O)cn3)nc12` [Compound 184], the IC50 is below 10 nM at CDK4/cyclin D3 and 10 to 100 nM at CDK2/cyclin A2.
For `CC(C)Nc1nc(C(F)F)cc2cnc(Nc3ccc(CN(C)C(N)=O)cn3)nc12` [Compound 185], in that order: below 10 nM and 10 to 100 nM.
For `CCNC(=O)NCc1ccc(Nc2ncc3cc(C(F)F)nc(NC(C)C)c3n2)nc1` [Compound 186], in that order: 10 to 100 nM and at least 100 nM.
The corresponding values for `CC(C)Nc1nc(C(F)F)cc2cnc(Nc3ccc(CNS(N)(=O)=O)cn3)nc12` [Compound 187] are 10 to 100 nM and at least 100 nM.
In the case of `CC(C)Nc1nc(C(F)F)cc2cnc(Nc3ccc(-c4cnn(C)c4)cn3)nc12` [Compound 188], the results for the IC50 on CDK4/cyclin D3 and on CDK2/cyclin A2 were 10 to 100 nM and at least 100 nM, respectively.
As to `CC(C)Nc1nc(C(F)F)cc2cnc(Nc3ccc(CN4CCCC4C(=O)O)cn3)nc12` (stereo not drawn) [Compound 189], the IC50 at CDK4/cyclin D3 was below 10 nM; on CDK2/cyclin A2, 10 to 100 nM.
As for `CC(C)Nc1nc(C(F)F)cc2cnc(Nc3ccc(CN4CCC(C(=O)O)C4)cn3)nc12` (stereo not drawn) [Compound 190], the IC50 on CDK4/cyclin D3 is below 10 nM; on CDK2/cyclin A2, 10 to 100 nM.
In the case of `CC(C)Nc1nc(C(F)F)cc2cnc(Nc3ccc(N4CCC(C(C)(C)O)CC4)nn3)nc12` [Compound 191], the figures for the IC50 on CDK4/cyclin D3 and at CDK2/cyclin A2 were below 10 nM and 10 to 100 nM, respectively.
The corresponding values for `CO[C@H](C)c1cc2cnc(Nc3ccc(CCCN4CCOCC4=O)cn3)nc2c(NC(C)C)n1` [Compound 192] are 10 to 100 nM and at least 100 nM.
With `COCC(C)(C)Nc1nc([C@@H](C)O)cc2cnc(Nc3ccc(CCCN4CCOCC4=O)cn3)nc12` [Compound 193], the IC50 is 10 to 100 nM at CDK4/cyclin D3 and at least 100 nM at CDK2/cyclin A2.
On to `CC(C)Nc1nc(C(F)F)cc2cnc(Nc3ccc(CN4CCCCC4C(=O)O)cn3)nc12` (stereo not drawn) [Compound 194], for which the IC50 on CDK4/cyclin D3 is below 10 nM; on CDK2/cyclin A2 it was 10 to 100 nM.
The corresponding values for `COCC(C)(C)Nc1nc([C@@H](C)O)cc2cnc(Nc3ccc(N4CCNCC4)cn3)nc12` [Compound 195, (R)-1-(8-(l-methoxy-2-methylpropan-2-ylamino)-2-(5-(piperazin-1-yl)pyridin-2-ylamino)pyrido[3,4-d]pyrimidin-6-yl)ethanol] are below 10 nM and at least 100 nM.
For `COCC(C)(C)Nc1nc([C@@H](C)O)cc2cnc(Nc3ccc(CN4CCC(C(C)(C)O)CC4)cn3)nc12` [Compound 196], in that order: below 10 nM and at least 100 nM.
The corresponding values for `COCC(C)(C)Nc1nc([C@@H](C)O)cc2cnc(Nc3ccc(CN4CCC(C(=O)O)CC4)cn3)nc12` [Compound 197] are 10 to 100 nM and at least 100 nM.
Regarding `COCC(C)(C)Nc1nc([C@@H](C)O)cc2cnc(Nc3ccc(CN4CCOCC4=O)cn3)nc12` [Compound 198], the values for the IC50 on CDK4/cyclin D3 and at CDK2/cyclin A2 were 10 to 100 nM and at least 100 nM, respectively.
In the case of `CO[C@H](C)c1cc2cnc(Nc3ccc(CN4CCOCC4=O)cn3)nc2c(NC(C)C)n1` [Compound 199], the figures for the IC50 on CDK4/cyclin D3 and on CDK2/cyclin A2 were 10 to 100 nM and at least 100 nM, respectively.
`CO[C@H](C)c1cc2cnc(Nc3ccc(CN4CCC(C(C)(C)O)CC4)cn3)nc2c(NC(C)C)n1` [Compound 200]: the IC50 was below 10 nM on CDK4/cyclin D3 and at least 100 nM at CDK2/cyclin A2.
As to `CO[C@H](C)c1cc2cnc(Nc3ccc(N4CCC(O)CC4)nn3)nc2c(NC(C)C)n1` [Compound 201], the values for the IC50 at CDK4/cyclin D3 and at CDK2/cyclin A2 were 10 to 100 nM and at least 100 nM, respectively.
For `COCC(C)(C)Nc1nc([C@@H](C)O)cc2cnc(Nc3ccc(N4CCC(O)CC4)nn3)nc12` [Compound 202], in that order: 10 to 100 nM and at least 100 nM.
`CC(C)Nc1nc(C(F)F)cc2cnc(Nc3ccc(C4=CC(=O)NCC4)cn3)nc12` [Compound 203]: the IC50 on CDK4/cyclin D3 was below 10 nM; on CDK2/cyclin A2, 10 to 100 nM.
The corresponding values for `COCC(C)(C)Nc1nc([C@@H](C)O)cc2cnc(Nc3ccc(N4CCOCC4)cn3)nc12` [Compound 204] are below 10 nM and at least 100 nM.
For `CC(C)Nc1nc(C(F)F)cc2cnc(Nc3ccc(CN4CCNCC4=O)cn3)nc12` [Compound 205], in that order: below 10 nM and 10 to 100 nM.
The corresponding values for `COCC(C)(C)Nc1nc([C@@H](C)O)cc2cnc(Nc3ccc(N4CCNCC4=O)cn3)nc12` [Compound 206] are below 10 nM and at least 100 nM.
Turning to `CO[C@H](C)c1cc2cnc(Nc3ccc(N4CCNCC4=O)cn3)nc2c(NC(C)C)n1` [Compound 207], the IC50 was below 10 nM on CDK4/cyclin D3 and at least 100 nM on CDK2/cyclin A2.
For `COCC(C)(C)Nc1nc([C@@H](C)O)cc2cnc(Nc3ccc(OCCN(C)C)cn3)nc12` [Compound 208], in that order: below 10 nM and at least 100 nM.
Turning to `CC(C)Nc1nc(C(F)F)cc2cnc(Nc3ccc(-c4cn[nH]c4)cn3)nc12` [Compound 209], the IC50 on CDK4/cyclin D3 is 10 to 100 nM; at CDK2/cyclin A2 it was at least 100 nM.
Regarding `CC(C)Nc1nc(C(F)F)cc2cnc(Nc3ccc(-n4cccn4)cn3)nc12` [Compound 210], the IC50 is 10 to 100 nM at CDK4/cyclin D3 and at least 100 nM at CDK2/cyclin A2.
For `CC(C)Nc1nc(C(F)F)cc2cnc(Nc3ccc(-n4cnnn4)cn3)nc12` [Compound 211], in that order: 10 to 100 nM and 10 to 100 nM.
With `COCC(C)(C)Nc1nc([C@@H](C)O)cc2cnc(Nc3ccc(N4CCNCC4)nn3)nc12` [Compound 212], the values for the IC50 at CDK4/cyclin D3 and at CDK2/cyclin A2 were below 10 nM and at least 100 nM, respectively.
